Publication PMC6789782, “Safety Pharmacological Evaluation of the Coffee Component, Caffeoylquinic Acid, and Its Metabolites, Using Ex Vivo and In Vitro Profiling Assays” (Pharmaceuticals, 2019)
Like-named read-outs stand apart in the source and are kept apart here.

Tests used:
Histamine H2 = Histamine H2 (Homo sapiens, UniProt P25021); assay: In vitro profiling, binding assay
Experimental: (§1) Binding and functional assays of CGAs with the proteins known to be pharmacological targets related to the CVS, CNS, and GI functions were conducted. […] In the binding assay, we measured the radiation activity of the solution containing filtered proteins that bound to the tested compound or high-affinity ligand, while in the functional assays, we measured the reaction product. The ability of the test compound to interact with the tested targets was measured as the inhibition of ligand binding to the target or reaction product production (% inhibition).

5-HT1A = target: T1, 5-HT1A (Homo sapiens, UniProt P08908); assay: In vitro profiling, binding assay
T1 sequence (P08908 1-422): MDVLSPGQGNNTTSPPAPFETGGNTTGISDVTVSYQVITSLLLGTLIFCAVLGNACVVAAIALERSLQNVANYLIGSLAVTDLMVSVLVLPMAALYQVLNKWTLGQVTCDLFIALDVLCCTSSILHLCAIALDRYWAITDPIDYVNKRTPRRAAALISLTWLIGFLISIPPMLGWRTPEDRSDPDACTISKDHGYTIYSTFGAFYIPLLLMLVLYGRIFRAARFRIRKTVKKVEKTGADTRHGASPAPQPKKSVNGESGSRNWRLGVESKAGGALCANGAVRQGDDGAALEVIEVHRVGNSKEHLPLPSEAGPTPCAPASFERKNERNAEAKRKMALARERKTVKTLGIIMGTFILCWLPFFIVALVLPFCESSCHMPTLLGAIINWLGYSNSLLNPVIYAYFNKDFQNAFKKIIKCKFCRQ
Experimental: as §1

Opiate δ1 = Opiate δ1 (Homo sapiens, UniProt P41143); assay: In vitro profiling, binding assay
Opiate δ1, sequence (P41143 whole entry): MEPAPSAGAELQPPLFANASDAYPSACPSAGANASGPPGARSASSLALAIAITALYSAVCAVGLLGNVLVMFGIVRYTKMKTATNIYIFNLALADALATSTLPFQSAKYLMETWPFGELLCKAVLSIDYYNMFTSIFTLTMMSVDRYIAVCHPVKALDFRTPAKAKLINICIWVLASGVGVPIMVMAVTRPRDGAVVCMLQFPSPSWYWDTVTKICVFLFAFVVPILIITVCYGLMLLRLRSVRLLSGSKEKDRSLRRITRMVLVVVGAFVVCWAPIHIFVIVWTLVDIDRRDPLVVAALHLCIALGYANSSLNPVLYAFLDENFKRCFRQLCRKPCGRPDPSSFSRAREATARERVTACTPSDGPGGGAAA
Experimental: as §1

Muscarinic M1 = target: T2, Muscarinic M1 (Homo sapiens, UniProt P11229); assay: In vitro profiling, binding assay
T2 sequence (P11229 1-460): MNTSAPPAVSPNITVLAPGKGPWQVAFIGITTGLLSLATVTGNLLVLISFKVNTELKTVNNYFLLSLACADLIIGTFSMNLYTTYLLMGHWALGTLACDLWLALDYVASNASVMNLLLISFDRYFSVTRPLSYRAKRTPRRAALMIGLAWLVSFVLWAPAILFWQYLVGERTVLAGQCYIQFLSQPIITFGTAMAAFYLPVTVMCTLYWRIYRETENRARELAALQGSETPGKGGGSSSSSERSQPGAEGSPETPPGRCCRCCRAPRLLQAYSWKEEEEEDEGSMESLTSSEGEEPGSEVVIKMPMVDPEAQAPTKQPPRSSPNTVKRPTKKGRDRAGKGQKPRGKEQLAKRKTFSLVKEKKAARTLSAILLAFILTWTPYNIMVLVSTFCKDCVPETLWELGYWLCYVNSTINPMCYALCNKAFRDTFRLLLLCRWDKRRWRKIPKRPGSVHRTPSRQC
Experimental: as §1

Cyclooxygenase COX-1 = Cyclooxygenase COX-1 (Homo sapiens, UniProt P23219); assay: In vitro profiling, functional assay; assay type: biochemical
Cyclooxygenase COX-1, sequence (P23219 24-599): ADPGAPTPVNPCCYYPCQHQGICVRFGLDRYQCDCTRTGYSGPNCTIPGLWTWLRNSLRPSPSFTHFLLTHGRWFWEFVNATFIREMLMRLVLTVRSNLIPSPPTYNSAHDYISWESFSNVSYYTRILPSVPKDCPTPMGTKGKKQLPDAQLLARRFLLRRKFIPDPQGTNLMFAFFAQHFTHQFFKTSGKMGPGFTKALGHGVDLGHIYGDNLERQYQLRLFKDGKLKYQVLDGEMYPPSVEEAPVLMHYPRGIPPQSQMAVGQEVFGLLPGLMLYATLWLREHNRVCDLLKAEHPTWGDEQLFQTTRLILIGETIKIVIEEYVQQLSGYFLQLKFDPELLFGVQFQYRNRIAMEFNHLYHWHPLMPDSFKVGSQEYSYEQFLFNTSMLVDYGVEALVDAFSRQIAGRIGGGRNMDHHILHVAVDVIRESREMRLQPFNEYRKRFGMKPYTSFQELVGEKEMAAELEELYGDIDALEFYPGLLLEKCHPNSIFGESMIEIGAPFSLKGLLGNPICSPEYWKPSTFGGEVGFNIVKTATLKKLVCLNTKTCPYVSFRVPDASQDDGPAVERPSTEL
Experimental: as §1

Monoamine Oxidase MAO-A = target: T3, Monoamine Oxidase MAO-A (Homo sapiens, UniProt P21397); assay: In vitro profiling, functional assay; assay type: biochemical
T3 sequence (P21397 1-527): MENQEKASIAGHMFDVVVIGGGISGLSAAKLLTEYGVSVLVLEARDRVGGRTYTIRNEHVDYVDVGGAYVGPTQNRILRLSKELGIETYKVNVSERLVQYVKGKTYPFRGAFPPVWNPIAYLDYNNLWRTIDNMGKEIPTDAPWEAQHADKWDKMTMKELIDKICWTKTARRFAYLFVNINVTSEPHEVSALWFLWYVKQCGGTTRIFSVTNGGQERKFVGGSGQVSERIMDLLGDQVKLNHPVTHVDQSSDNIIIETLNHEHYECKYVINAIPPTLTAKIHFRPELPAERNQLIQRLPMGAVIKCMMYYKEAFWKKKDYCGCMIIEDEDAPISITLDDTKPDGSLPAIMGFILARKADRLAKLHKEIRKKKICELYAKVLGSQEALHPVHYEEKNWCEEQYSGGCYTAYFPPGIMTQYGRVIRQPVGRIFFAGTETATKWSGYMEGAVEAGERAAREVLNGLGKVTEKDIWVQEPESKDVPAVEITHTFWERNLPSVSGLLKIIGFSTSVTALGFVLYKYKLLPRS
Experimental: as §1

[1] = target: T4, Peptidase, CTSG (Cathepsin G) (Homo sapiens, UniProt P08311); assay: In vitro profiling, functional assay; assay type: biochemical
T4 sequence (P08311 21-255): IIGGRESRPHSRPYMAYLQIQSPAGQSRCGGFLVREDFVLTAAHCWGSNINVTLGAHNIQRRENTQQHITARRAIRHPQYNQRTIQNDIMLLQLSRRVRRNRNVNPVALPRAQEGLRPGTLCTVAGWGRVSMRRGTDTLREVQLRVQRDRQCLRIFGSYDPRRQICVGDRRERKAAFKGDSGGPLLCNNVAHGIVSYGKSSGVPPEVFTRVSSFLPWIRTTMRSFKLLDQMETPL
Experimental: as §1

Cyclooxygenase COX-2 = target: T5, Cyclooxygenase COX-2 (Homo sapiens, UniProt P35354); assay: In vitro profiling, functional assay; assay type: biochemical
T5 sequence (P35354 18-604): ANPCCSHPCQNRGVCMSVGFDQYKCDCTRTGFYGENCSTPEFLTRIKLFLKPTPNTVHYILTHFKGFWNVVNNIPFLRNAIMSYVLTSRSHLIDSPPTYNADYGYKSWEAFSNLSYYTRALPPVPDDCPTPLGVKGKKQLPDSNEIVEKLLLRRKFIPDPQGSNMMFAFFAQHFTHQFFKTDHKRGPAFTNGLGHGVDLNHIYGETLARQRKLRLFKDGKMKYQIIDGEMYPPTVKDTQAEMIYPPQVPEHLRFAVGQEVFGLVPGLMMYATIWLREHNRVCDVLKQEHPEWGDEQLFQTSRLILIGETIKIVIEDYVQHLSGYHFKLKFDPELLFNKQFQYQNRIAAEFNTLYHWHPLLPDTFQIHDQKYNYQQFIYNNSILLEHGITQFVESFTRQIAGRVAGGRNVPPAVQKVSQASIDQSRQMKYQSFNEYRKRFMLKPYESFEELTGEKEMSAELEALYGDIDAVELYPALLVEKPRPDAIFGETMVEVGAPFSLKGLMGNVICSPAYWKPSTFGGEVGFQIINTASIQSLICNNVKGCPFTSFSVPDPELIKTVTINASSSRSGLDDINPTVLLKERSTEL
Experimental: as §1

Phosphodiesterase PDE4 = assay: In vitro profiling, functional assay; assay type: biochemical, human; conditions: 30 µM
Experimental: as §1

[2] = 30 µM, Histamine H2, read-out: % Inhibition
[3] = 30 µM, 5-HT1A, read-out: % Inhibition
[4] = 30 µM, Opiate δ1, read-out: % Inhibition
[5] = 30 µM, Cyclooxygenase COX-1, read-out: % Inhibition
[6] = 30 µM, Monoamine Oxidase MAO-A, read-out: % Inhibition
[7] = 30 µM, Peptidase, CTSG (Cathepsin G), read-out: % Inhibition

Histamine H2, sequence (P25021 whole entry): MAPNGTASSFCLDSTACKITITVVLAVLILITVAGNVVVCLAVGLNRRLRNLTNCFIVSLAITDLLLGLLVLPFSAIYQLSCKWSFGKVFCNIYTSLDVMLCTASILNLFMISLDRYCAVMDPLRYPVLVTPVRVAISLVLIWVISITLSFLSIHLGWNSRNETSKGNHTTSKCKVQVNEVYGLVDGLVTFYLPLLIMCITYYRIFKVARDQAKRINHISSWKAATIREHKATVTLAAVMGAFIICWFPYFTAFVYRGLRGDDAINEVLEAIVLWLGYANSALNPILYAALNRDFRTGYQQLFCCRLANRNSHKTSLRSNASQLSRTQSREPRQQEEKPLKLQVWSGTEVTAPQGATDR

SMILES	inhibition at 30 µM (Muscarinic M1) [%]	inhibition at 30 µM (Cyclooxygenase COX-1) [%]	inhibition at 30 µM (Monoamine Oxidase MAO-A) [%]	inhibition at 30 µM (Cyclooxygenase COX-2) [%]	% Inhibition (Phosphodiesterase PDE4) [%]	inhibition at 30 µM (Histamine H2; [2]) [%]	inhibition at 30 µM (5-HT1A; [3]) [%]	inhibition at 30 µM (Opiate δ1; [4]) [%]	inhibition at 30 µM (Cyclooxygenase COX-1; [5]) [%]	inhibition at 30 µM (Monoamine Oxidase MAO-A; [6]) [%]	inhibition at 30 µM [1, 7] [%]	also measured
O=C(O)/C=C/c1ccc(O)c(O)c1 [CA, caffeic acid]	5	6	0	9	4							% Inhibition (Histamine H2; 30 µM, Histamine H2): −6%; % Inhibition (5-HT1A; 30 µM, 5-HT1A): 9%; % Inhibition (Opiate δ1; 30 µM, Opiate δ1): 11%; % Inhibition ([1]; 30 µM, Peptidase, CTSG (Cathepsin G)): 1%
COc1cc(/C=C/C(=O)O[C@H]2C[C@@](O)(C(=O)O)C[C@H](O)[C@@H]2O)ccc1O [5-FQA, 5-O-feruloylquinic acid]					2	-5	11	2	11	0	2	inhibition at 30 µM (Muscarinic M1; 30 µM, Muscarinic M1, read-out: % Inhibition): -5%; inhibition at 30 µM (Cyclooxygenase COX-2; 30 µM, Cyclooxygenase COX-2, read-out: % Inhibition): 18%
O=C(/C=C/c1ccc(O)c(O)c1)O[C@H]1C[C@@](O)(C(=O)O)C[C@H](O)[C@@H]1O [5-CQA, 5-O-caffeoylquinic acid]	0			7	−6	0	12	5	2	-5	8	
COc1cc(/C=C/C(=O)O)ccc1O [FA, ferulic acid]		5	5	14	7							inhibition at 30 µM (Histamine H2): -5%; inhibition at 30 µM (5-HT1A): 2%; inhibition at 30 µM (Opiate δ1): 16%; inhibition at 30 µM [1]: -2%
